The subject of this experiment is HCT-116. The experiment in a line: Cytotoxicity against human HCT116 cells. It counts as functional, cell-based.
The IC50 is the concentration that gives 50% inhibition. Low readings indicate inhibition by little substance, high ones a need for much substance. `COc1ccc(C2=C(c3ccccc3)C(=O)N3CCC[C@H]3C2)cc1` came in with a concentration for half-maximal inhibition (IC50) of 390 nM.

With `COc1ccc(C2=C(c3ccccc3)C(=O)N3CCC[C@@H]3C2)cc1`, the IC50 turned out to be 200 nM.

For the molecule `COc1cc2c3c(c4cc(OC)c(OC)cc4c2cc1OC)CN1CCCC1C3` (racemic) [(+/-)-TYLOPHORINE], the concentration for half-maximal inhibition (IC50) came out at 670 nM.

For the origin of these results see ChEMBL document CHEMBL1149887, “Enantiospecific synthesis and cytotoxicity of 7-(4-methoxyphenyl)-6-phenyl-2,3,8,8a-tetrahydroindolizin-5(1H)-one enantiomers” (Bioorg Med Chem, 2008).
